Measured values published in US8710092B2, “Substituted indolo 4,3 FG quinolines useful for treating migraine” (Map Pharmaceuticals, Inc., priority 2009, dated 2014).
Read-outs that look alike come from different tables or passages of the source.

Key:
5-HT2B receptor [1] = biological target: T1, 5-HT2B receptor (Homo sapiens, UniProt P41595); assay: FLIPR assay, antagonist selectivity at the 5-HT2B receptor; format: cell-based; details: FIG. 2
T1 construct: Millipore, Inc. (GPCR Profiler Service Laboratory, St. Charles, Mo.)
Method: (§1) A FLIPR assay was conducted to monitor antagonist selectivity for 1-methyl-dihydroergotamine against the 5-HT2B receptor. The assay was completed with an eight point, 4 fold serial dilution series starting with 10 μM concentration to obtain full dose response curve. Percentage inhibition values were determined for 1-methyl-dihydroergotamine on the 5-HT2B receptor. Antagonist percentage inhibition determinations were obtained by assaying 1-methyl-dihydroergotamine and referencing the Emax control for the 5-HT2B receptor. The assay above was performed by GPCR Profiler™ Service Laboratory, St. Charles, Mo., Millipore, Inc.

5-HT2c receptor [2] = biological target: T2, 5-HT2c receptor (Homo sapiens, UniProt P28335); assay: FLIPR antagonist assay at the 5-HT2c receptor (analogous to Example 3); format: cell-based
T2 sequence (P28335 33-458): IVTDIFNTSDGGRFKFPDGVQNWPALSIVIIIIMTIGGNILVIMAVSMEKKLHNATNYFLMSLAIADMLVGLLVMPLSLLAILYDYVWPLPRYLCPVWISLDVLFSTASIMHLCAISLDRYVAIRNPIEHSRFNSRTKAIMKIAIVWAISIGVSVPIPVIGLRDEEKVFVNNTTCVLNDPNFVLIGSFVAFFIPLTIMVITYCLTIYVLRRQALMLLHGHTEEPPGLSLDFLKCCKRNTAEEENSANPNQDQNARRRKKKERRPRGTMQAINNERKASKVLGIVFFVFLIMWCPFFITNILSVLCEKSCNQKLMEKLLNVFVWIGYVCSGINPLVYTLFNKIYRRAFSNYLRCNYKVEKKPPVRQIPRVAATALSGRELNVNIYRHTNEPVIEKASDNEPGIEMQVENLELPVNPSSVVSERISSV

5-HT7 receptor = 5-HT7 receptor (Homo sapiens, UniProt P34969); assay: cAMP HTRF assay, antagonist activity at 5-HT7 (analogous to Example 6); format: cell-based; details: percent of control response to 300 nM serotonin, FIG. 4
Method: (§2) A cell based assay (cAMP modulation with HTRF detection) was conducted to monitor agonist activity of test compounds at the 5-HT1A receptor, summarized in FIG. 3. Test compounds were serially diluted to provide a wide concentration range sufficient to calculate EC50. The cAMP concentration was determined and results are expressed as a percent of the control response to 100 nM 8-OH-DPAT (control agonist).
The assay was performed analogously to the assay described in Example 6. Antagonist activity of test compounds at the 5-HT7 receptor, using serotonin as a control reference agonist, was measured. Test compounds were serially diluted to provide a wide concentration range sufficient to calculate IC50. The results are expressed as a percent of the control response to 300 nM serotonin.

5-HT1B receptor = 5-HT1B receptor (Homo sapiens, UniProt P28222); assay: Membrane based GTPγS assay, agonist activity at 5-HT1B; format: biochemical; details: 5-CT reference agonist, FIG. 5
Method: A membrane based GTPγS assay was conducted to monitor agonist activity of test compounds at the 5-HT1B receptor, summarized in FIG. 5. Test compounds were serially diluted to provide a wide concentration range sufficient to calculate EC50. The results are expressed as a percent of activation. 5-CT was used as a reference agonist.

5-HT1A receptor = biological target: T3, 5-HT1A receptor (Homo sapiens, UniProt P08908); assay: Cell based assay (cAMP modulation with HTRF detection), agonist activity at 5-HT1A; details: percent of control response to 100 nM 8-OH-DPAT, FIG. 3
T3 sequence (P08908 1-422): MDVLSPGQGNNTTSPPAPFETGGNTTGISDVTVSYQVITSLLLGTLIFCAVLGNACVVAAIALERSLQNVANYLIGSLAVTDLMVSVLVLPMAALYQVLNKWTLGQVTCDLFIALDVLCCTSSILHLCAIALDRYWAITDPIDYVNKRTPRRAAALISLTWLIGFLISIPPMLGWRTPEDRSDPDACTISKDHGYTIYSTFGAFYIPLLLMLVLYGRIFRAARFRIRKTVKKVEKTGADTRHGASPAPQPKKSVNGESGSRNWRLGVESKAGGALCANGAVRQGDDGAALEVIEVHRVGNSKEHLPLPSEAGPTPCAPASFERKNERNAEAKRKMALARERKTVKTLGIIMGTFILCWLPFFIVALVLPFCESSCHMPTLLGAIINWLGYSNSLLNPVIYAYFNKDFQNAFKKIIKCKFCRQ
Method: as §2

5-HT2c receptor [3] = biological target: T2, 5-HT2c receptor; assay: FLIPR agonist assay at the 5-HT2c receptor (analogous to Example 2); format: cell-based; details: for agonist activity at the 5-HT2c receptor: FLIPR
5-HT1D receptor = 5-HT1D receptor (Homo sapiens, UniProt P28221); assay: Membrane based GTPγS assay, agonist activity at 5-HT1D; format: biochemical; details: 5-CT reference agonist, FIG. 6
5-HT2B receptor [4] = biological target: T1, 5-HT2B receptor; assay: FLIPR assay, agonist selectivity at the 5-HT2B receptor; format: cell-based
Method: as §1, with “agonist” for “antagonist”, “activation” for “inhibition”, “Agonist selectivity was determined upon initial addition of for 1-methyl-dihydroergotamine followed by a 5 minute incubation at 25° C. Following compound incubation, reference agonists were added at EC80. Agonist” for “Antagonist”, “assay” for “assay above”

[5] = FLIPR, FIG. 1, read-out: EC50, agonism of the 5-HT2B receptor

T1 sequence (P41595 whole entry): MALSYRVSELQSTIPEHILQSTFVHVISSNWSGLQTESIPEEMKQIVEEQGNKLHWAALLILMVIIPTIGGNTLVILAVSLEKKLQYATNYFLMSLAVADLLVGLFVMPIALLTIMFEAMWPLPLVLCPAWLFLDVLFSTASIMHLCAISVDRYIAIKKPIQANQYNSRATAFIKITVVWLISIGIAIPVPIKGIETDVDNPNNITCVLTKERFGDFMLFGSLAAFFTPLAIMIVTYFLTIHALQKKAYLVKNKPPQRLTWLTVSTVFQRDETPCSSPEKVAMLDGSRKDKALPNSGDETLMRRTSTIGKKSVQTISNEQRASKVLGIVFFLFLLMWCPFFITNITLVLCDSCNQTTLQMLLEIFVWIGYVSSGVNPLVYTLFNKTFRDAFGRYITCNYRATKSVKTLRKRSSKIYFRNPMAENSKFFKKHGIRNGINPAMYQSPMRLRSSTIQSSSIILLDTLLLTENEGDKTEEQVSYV
5-HT7 receptor, sequence (P34969 whole entry): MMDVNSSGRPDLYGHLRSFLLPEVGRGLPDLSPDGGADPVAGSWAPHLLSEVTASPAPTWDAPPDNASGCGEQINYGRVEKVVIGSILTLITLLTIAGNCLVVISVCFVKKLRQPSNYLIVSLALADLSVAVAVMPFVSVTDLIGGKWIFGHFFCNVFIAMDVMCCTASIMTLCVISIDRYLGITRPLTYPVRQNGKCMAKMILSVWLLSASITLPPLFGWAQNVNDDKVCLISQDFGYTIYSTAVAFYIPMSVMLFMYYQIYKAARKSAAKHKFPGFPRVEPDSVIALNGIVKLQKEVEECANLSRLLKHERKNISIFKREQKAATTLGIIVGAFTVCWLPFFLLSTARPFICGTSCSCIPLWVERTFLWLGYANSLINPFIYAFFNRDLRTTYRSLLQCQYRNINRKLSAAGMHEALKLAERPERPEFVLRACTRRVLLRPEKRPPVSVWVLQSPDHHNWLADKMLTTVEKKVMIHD
5-HT1D receptor, sequence (P28221 whole entry): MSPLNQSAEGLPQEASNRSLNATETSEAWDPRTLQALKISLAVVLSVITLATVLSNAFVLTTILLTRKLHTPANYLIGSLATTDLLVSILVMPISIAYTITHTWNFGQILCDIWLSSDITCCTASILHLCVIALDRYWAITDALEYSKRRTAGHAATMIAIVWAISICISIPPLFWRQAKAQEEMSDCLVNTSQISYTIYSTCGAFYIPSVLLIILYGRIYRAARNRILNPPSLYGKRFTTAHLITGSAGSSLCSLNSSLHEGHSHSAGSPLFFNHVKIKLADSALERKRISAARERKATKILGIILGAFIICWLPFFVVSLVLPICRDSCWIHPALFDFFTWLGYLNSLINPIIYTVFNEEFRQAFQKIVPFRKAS
5-HT1B receptor, sequence (P28222 whole entry): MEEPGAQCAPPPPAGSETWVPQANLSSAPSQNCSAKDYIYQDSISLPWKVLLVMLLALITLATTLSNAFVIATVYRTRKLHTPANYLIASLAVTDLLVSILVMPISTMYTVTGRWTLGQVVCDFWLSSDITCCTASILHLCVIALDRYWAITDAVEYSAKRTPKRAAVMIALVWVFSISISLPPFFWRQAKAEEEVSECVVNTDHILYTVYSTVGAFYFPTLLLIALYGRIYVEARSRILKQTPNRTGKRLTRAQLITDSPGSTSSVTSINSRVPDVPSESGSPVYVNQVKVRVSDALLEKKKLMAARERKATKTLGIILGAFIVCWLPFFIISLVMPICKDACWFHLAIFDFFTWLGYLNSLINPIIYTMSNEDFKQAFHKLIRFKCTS

Row | SMILES | IC50 (5-HT2c receptor [2]) [nM] | agonist activity at the 5-HT2c receptor (5-HT2c receptor [3]) | EC50 (5-HT2B receptor [4]) [nM] | EC50 (5-HT2B receptor [4]; [5]) [nM] | also measured
1 | CN1CC(C(=O)N[C@]2(C)O[C@@]3(O)C4CCCN4C(=O)[C@H](Cc4ccccc4)N3C2=O)CC2c3cccc4c3c(cn4C)CC21 (stereo partly shown) [MAP0057, 1-Methyl-Dihydroergotamine] | 460 | no agonist activity | – | – | IC50 (5-HT2B receptor [1]): 16 nM; IC50 (5-HT7 receptor): 69 nM; EC50 (5-HT1B receptor): 1.02 nM; EC50 (5-HT1A receptor): 16 nM; EC50 (5-HT1D receptor): 0.45 nM; agonist activity at the 5-HT2B receptor (5-HT2B receptor [4]; FLIPR, dilution series starting with 10 μM, FIG. 1): no agonist activity; melting point: 216 to 218 °C
2 | CN1C[C@H](C(=O)N[C@]2(C)O[C@@]3(O)[C@@H]4CCCN4C(=O)[C@H](Cc4ccccc4)N3C2=O)C[C@@H]2c3cccc4[nH]cc(c34)C[C@H]21 [dihydroergotamine] | 280 | no agonist activity | 260 | – | –
3 | CN1C[C@H](C(=O)N[C@]2(C)O[C@@]3(O)[C@@H]4CCCN4C(=O)[C@H](Cc4ccccc4)N3C2=O)C=C2c3cccc4[nH]cc(c34)C[C@H]21 [ergotamine] | – | – | 160 | – | EC50 (5-HT2c receptor [3]): 5000 nM
4 | CNS(=O)(=O)Cc1ccc2[nH]cc(CCN(C)C)c2c1 [sumatriptan] | – | no agonist activity | – | – | antagonist activity at the 5-HT2c receptor (5-HT2c receptor [2]; FLIPR): no antagonist activity
5 | CC(N)Cc1c[nH]c2ccc(O)cc12 (stereo not drawn) [alpha-Me-5HT] | – | – | – | 0.2 | –
6 | CCCN1C[C@H](CSC)C[C@@H]2c3cccc4[nH]cc(c34)C[C@H]21 [pergolide] | – | no agonist activity | – | 10 | –
